Measurements reported in paper PMC10145360, “Antiplatelet Aggregation Properties of Cirsilineol: A Novel Inhibitor of Blood Coagulation Factor Xa” (Pharmaceuticals, 2023).
Where “and” joins values, the source holds several entries; their conditions need not be identical. Identical values can stand only once.

Experiments:
[1] = system: platelets; assay: P-selectin and PAC-1 expression, flow cytometry; assay type: cell-based, human; conditions: platelets activated by ADP or U46619; CSL 10 or 20 μM
Procedure: Figure 7 Effects of CSL on the expression of P-selectin and PAC-1 and the production of NO and ET-1. (A) Rinsed platelets were incubated with DMSO or CSL (10 or 20 μM) for 3 min at 37 °C, and stimulation of ADP ((A,C) 10 μM) or U46619 ((B,D) 6 μM) was given for 6 min. The expressions of P-selectin and PAC-1 (A,B) and the production of NO and ET-1 (C,D) were measured as described in the Methods section. Data are shown as mean values ± SD of five independent experiments. * p < 0.05 vs. (A,C) ADP or (B,D) U46619 alone. D = 0.2% DMSO, used as the vehicle control.
PAC-1 and P-selectin expression levels were assessed by modifying accepted techniques. Briefly, 20 μL of DMSO or CSL (10 to 20 μM) were incubated with 0.5 mL of cleaned platelets (2 × 10^8 platelets/mL) for 3 min. The platelet suspension was refrigerated at 4 °C after stimulation with ADP (10 μM) or U46619 (6 μM) for 6 min at 37 °C. Subsequently, 50 μL of the sample was mixed with activation-specific anti-PAC-1 and anti-CD61-PE in saturated concentrations, and the mixture was then incubated for 25 min in the dark to determine the expression of PAC-1. […] Finally, 5000 events were evaluated for each sample. The mean fluorescence intensities from each channel were expressed using BD Accuri C6 software (BD Biosciences, San Diego, CA, USA). […]

[2] = system: human platelet-rich plasma (PRP); assay: In vitro agonist-induced platelet aggregation (aggregometer); assay type: cell-based
Procedure: Figure 3 Effects of CSL on agonist-induced platelet aggregation. Platelet-rich plasma (PRP) was preincubated for 5 min with different concentrations of CSL, Riva, or the vehicle. […] Data are shown as mean values ± SD of five independent experiments. * p < 0.05 vs. D. D = 0.2% DMSO, used as the vehicle control.
Ten fasting healthy volunteers (aged 24–28; six women and four men) who were free of allergies, cardiovascular problems, carbohydrate, or lipid metabolic abnormalities and had not taken any morning medication had their blood samples taken. None of our subjects used addictive drugs or antioxidant food supplements, and their diets were well balanced. The plasma from the blood samples was immediately spun down (1300× g for 15 min) to separate it from sodium citrate (10.9 mM) and pooled for the following investigations. Next, human blood samples were spun down at room temperature to rapidly separate the PRP. The PRP concentration was adjusted to 1 × 10^9 platelets/mL using a hemocytometer. After being rinsed once in HEPES buffer containing 1 mM CaCl2, the PRP pellet was maintained at room temperature for an additional 30 min. Then, 10 mL of the platelet samples were utilized to measure each clotting time point. The IRB of Kyungpook National University Hospital (Daegu, Republic of Korea) approved this study protocol (KNUH 2012-01-010).
CSL dissolved in DMSO was incubated with human PRP for a specified time (1, 3, 5, or 10 min). […]

[3] = biological target: T1, Factor Xa (Homo sapiens, UniProt P00742); assay: FXa amidolytic activity and inhibitory constant (chromogenic substrate); assay type: biochemical
T1 construct: Factor Xa; purchased Haematologic Technologies (Essex Junction, VT, USA)
Procedure: CSL was dissolved in 50 mM Tris buffer, which has a pH of 7.4, and was added to 150 μL of FXa solution (1 U/mL). This mixture was incubated for 1 min at 37 °C. Additionally, 150 μL of S-2222 solution (1.5 mM) was blended, and for 20 min, the changes in absorbance were observed spectrophotometrically at 405 nm. We used the slope of the curve (Vi) and the absorbance–time curve to determine enzyme activity. Equation (1) was used to compute the CSL inhibitory rates:Inhibitory rate (%) = (V0 − Vi)/V0 × 100(1) where Vi and V0 represent the slopes of the samples and the vehicle, respectively.
Ki values were calculated based on chromogenic substrate experiments. CSL was employed in each assay at a minimum of seven concentrations in duplicate to obtain an inhibition curve. A total of 50 μL of substrate was combined with 25 μL of each chemical solution, inhibitor solution, or blank buffer. Before the plate was allocated into the Labsystems IEMS microtiter plate reader (Cergy Pontoise, France), 25 μL of the enzyme solution was mixed. The plate was allowed for 1 h at 37 °C before analysis. We continuously observed the formation of p-nitroaniline produced when the substrate was hydrolyzed using spectrophotometry at 405 nm. The maximum initial reaction rates were computed as the millioptical density per minute. A Dixon plot of 1/Vmax versus inhibitor concentration was used to fit the curve and determine the Ki values.

[4] = system: FeCl3-induced carotid artery thrombosis; assay: FeCl3-induced carotid artery thrombosis model; assay type: in vivo, mouse; conditions: mice
Procedure: A mouse model of FeCl3-induced thrombosis was created and used. Male C57BL/6 mice were starved for the entire night before receiving intravenous injections of the relevant drug in 0.2 mL of DMSO and were allowed to sleep. The carotid artery of the animal was exposed. The adventitial surface was covered with a cotton thread (200 μm in diameter) soaked in FeCl3 solution (0.25 M) for 5 min. The wound was flushed with saline solution once the thread had been removed. […] We measured the size and rate of thrombus formation, and we graded our results as follows: no thrombus or small thrombus (75–50 μm), medium thrombus (150–100 μm), massive thrombus (300–200 μm), and more than three thrombi. It was also noted how long it took for an extensive thrombus to obstruct the carotid artery following endothelial damage caused by FeCl3.

T1 sequence (P00742 235-488 limits assumed): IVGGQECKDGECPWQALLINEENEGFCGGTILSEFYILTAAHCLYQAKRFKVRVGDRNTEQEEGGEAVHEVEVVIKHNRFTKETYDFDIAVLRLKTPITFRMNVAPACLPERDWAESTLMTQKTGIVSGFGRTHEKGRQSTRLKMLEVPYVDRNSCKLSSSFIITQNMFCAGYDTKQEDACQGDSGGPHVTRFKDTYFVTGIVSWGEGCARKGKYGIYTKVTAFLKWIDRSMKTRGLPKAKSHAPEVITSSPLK
T1 sequence (P00742 41-179 partner limits assumed): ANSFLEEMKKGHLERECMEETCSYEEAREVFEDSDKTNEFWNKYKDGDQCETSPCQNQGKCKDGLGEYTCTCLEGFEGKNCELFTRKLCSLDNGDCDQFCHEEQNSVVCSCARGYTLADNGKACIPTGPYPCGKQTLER

**Q.** COc1cc(-c2cc(=O)c3c(O)c(OC)c(OC)cc3o2)ccc1O [CSL, 4,5-dihydroxy-3,6,7-trimethoxyflavone] was tested. Which “expression of P-selectin and PAC-1” value [1] did it give?
**A.** reduced the expression

**Q.** And the “platelet aggregation induced by ADP” value ([2]; ADP 10 μM)?
**A.** significantly suppressed

**Q.** And the “platelet aggregation induced by U46619” value ([2]; U46619 6 μM)?
**A.** significantly suppressed

**Q.** And the “platelet aggregation induced by collagen” value ([2]; collagen 1 μg/mL)?
**A.** significantly suppressed

**Q.** What about the “Km value of FXa on S-2222” value [3] of the same compound?
**A.** increase

**Q.** And the “Vmax of FXa on S-2222” value [3]?
**A.** decrease

**Q.** What about the “selectivity ratio (based on Ki values) for FXa compared to other enzymes examined” value [3] of the same compound?
**A.** > 300

**Q.** What about the “slope of Michaelis–Menten plot” value ([3]; CSL 10 μM, FXa on S-2222) of the same compound?
**A.** 0.568

**Q.** What about the “slope of Michaelis–Menten plot” value ([3]; CSL 20 μM, FXa on S-2222) of the same compound?
**A.** 0.759

**Q.** What about the “inhibitory pattern (Lineweaver–Burk plot)” value ([3]; FXa on S-2222) of the same compound?
**A.** mixed-type inhibitory pattern

**Q.** What about the “Ratio = Ki enzyme/Ki Factor Xa” value ([3]; Factor Xa) of the same compound?
**A.** 1

**Q.** What about the Ki ([3]; Factor Xa, chromogenic substrate S-2222, Dixon plot) of the same compound?
**A.** 3.71 µM and 3.7 µM

**Q.** What about the Scored thrombus formation ([4]; 0.13 mg/kg intravenous) of the same compound?
**A.** 3.7 ± 0.2

**Q.** What about the “Time to Large Thrombus Formation” value ([4]; 0.13 mg/kg intravenous) of the same compound?
**A.** 13.1 ± 1.1 min

**Q.** And the Scored thrombus formation ([4]; 0.26 mg/kg intravenous)?
**A.** 2.7 ± 0.1

**Q.** What about the “Time to Large Thrombus Formation” value ([4]; 0.26 mg/kg intravenous) of the same compound?
**A.** 27.2 ± 2.1 min

**Q.** And the Scored thrombus formation ([4]; 0.51 mg/kg intravenous)?
**A.** 1.8 ± 0.1

**Q.** And the “Time to Large Thrombus Formation” value ([4]; 0.51 mg/kg intravenous)?
**A.** 51.4 ± 3.1 min
